US20250073209A1, “COVALENT TARGETING OF RhoA FOR CANCER THERAPY” (The University of Hong Kong, priority 2023, published 2025)

How the values were obtained:
HT29 xenograft = assay: Mouse HT29 xenograft model; type: in vivo
Procedure: FIG. 7A is a graph showing inhibition of tumor growth by CL16 in mouse HCT116 xenografts through intraperitoneal injection at 10 mg/kg (n=6 per group). FIG. 7B is a graph showing inhibition of tumor growth by CL16 in mouse HT29 xenografts through intraperitoneal injection at 10 mg/kg (n=7). FIG. 7C is a graph showing the body weight of mice with HT29 xenografts throughout the treatment with CL16. FIG. 7D is a graph showing inhibition of tumor growth by CL16 in mouse SW620 xenografts through intraperitoneal injection at 10 mg/kg (n=6 per group). FIG. 7E is a bar graph showing the tumor weight of harvested tumors from the treated mice with SW620 xenografts. FIG. 7F is a graph showing the body weight of mice with SW620 xenografts throughout the treatment with CL16. Statistical analysis using a two-tailed Student's t-test. *P<0.05.
7-week-old mice with weight around 20 g were inoculated subcutaneously with HCT116 (2×10^6 cells per mouse) or HT29 (3×10^6 cells per mouse) cells, in serum-free RMPI or Matrigel in PBS respectively. […] The tumor volume and body weight of the nude mice were measured throughout the treatment. The tumor volume was calculated by the equation: Volume (mm^3)=1×w^2/2, where 1 and w were the length and width of the tumor. At the end of the treatment, the mice were sacrificed and the tumor weight was measured. […]

RhoA [1] = target: T1, RhoA (Homo sapiens, UniProt P61586); assay: RhoA-GTP rhotekin pull-down, serum starvation-re-stimulation; type: cell-based; design: endogenous in cells; host or cells: HCT116, HT29
T1 sequence (P61586 whole entry, the tested form may be a part): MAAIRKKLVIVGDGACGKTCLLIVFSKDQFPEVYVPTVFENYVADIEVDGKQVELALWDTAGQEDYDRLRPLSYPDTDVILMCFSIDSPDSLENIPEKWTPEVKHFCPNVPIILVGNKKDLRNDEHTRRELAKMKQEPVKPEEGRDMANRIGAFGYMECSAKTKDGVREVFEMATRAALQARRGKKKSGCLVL
Procedure: RhoA Pull-Down Activation Assay Biochem Kit (#BK036) was purchased from Cytoskeleton. According to the manufacturer's protocol, total cell lysate (0.5 mg/mL; 300 μL) was added to 7.5 μL of Rhotekin-Rho Binding Domain beads in 0.6 mL tubes. The solution mixture was incubated at 4° C. on an end-to-end rotator for 1 hour. Beads were washed with 500 μL of washing buffer once, then centrifuged at 5000g for 3 min and the supernatant was discarded. RhoA-GTP was then eluted in 2× laemmli buffer and resolved in 10% SDS-PAGE.
GTP loading onto RhoA is critical for the protein activation and mediating downstream signals. In view of the inhibitions of GDP-to-GTP exchange of RhoA by CL16 in vitro as discussed above, effects of CL16 on RhoA biology in colorectal cancer cells were examined. In the serum starvation-re-stimulation experiment, HCT116 cells were grown in serum-free medium with CL16, Rhosin or solvent control for 24 h, followed by stimulation with 10% FBS for 10 min. The cells were then lysed and the RhoA activity was assayed by the level of RhoA-GTP, which is the active form of RhoA. […] HT29 cells were incubated with solvent vehicle, CL16 or Rhosin in complete medium for 24 h. […] Confocal fluorescence images from HCT116 and HT29 cells expressing FRET RhoA-biosensor in the serum starvation-restimulation experiment were taken.

RhoA [2] = target: T1, RhoA; assay: GDP-GTP exchange assay (BODIPY-GTP); type: biochemical; design: purchased ab101594; conditions: fluorescence-based exchange assay
Procedure: Recombinant human RhoA protein (0.2 μg; ab101594) was incubated with GDP (50 nM) in 100 μL of GTP-exchange buffer (20 mM HEPES, 150 mM NaCl, 5 mM MgCl2, pH 7.4) at room temperature for 1 h. CL16 or solvent control was then added to the solution mixture and incubated at room temperature for another hour. For self-exchange assay, BODIPY-GTP (100 nM) was added to the solution and the fluorescence from plate was measured every 30 s. For LARG-mediated GDP-to-GTP exchange, BODIPY-GTP (100 nM) and LARG DH-PH protein (30 nM) were added to the solution mixture and the fluorescence from plate was measured every 30 s. BODIPY-GTP was excited at 477±14 nm and its fluorescence was measured at 525±30 nm using a plate reader (Clariostar).

RhoA [3] = assay: FRET-RhoA biosensor imaging, serum re-stimulation; type: cell-based, human; conditions: transfected cells, serum-free 24 h, 10% FBS 10 min
Procedure: To further validate the inhibitory effects of CL16 on RhoA, HCT116 and HT29 cells were transfected with a FRET-RhoA biosensor, where cells with elevated RhoA activity would show a higher FRET/mTFP1. Specifically, HCT116 cells transfected with FRET-RhoA biosensor were treated with CL16 or solvent in serum-free medium for 24 h, washed with PBS, re-stimulated with 10% FBS for 10 min, washed, and then imaged in HBSS by confocal fluorescence microscopy. […] In addition, HCT116 cells were serum-starved and treated with CL16 or Rhosin for 24 h, followed by 10% FBS re-stimulation for 10 min. The cells were then washed and fixed by 4% paraformaldehyde, washed with PBS and stained with Alexa Fluor 488-Phalloidin in PBS (1:20, v/v) at room temperature for 15 min. The cells were washed with PBS, incubated with Hoechst (8.2 μM) in PBS for 15 min, washed and then imaged in PBS by confocal fluorescence microscopy. […] Since RhoA regulates cytoskeletal dynamics and RhoA activation can induce the formation of contractile F-actin, the reduction of F-actin fibers by CL16 treatment supports its inhibitory roles on RhoA signaling.

HT29 cells = assay: Transwell (Matrigel) invasion assay; type: cell-based, human; conditions: HT29, 24 h

## O=C(CCl)N1N=C(c2cc3ccccc3o2)CC1c1ccco1 (centres unmarked) [CL16]
HT29 xenograft; HT29 xenografts, FIG. 7C
  body weight, treated vs untreated: no observable difference
HT29 xenograft; nude mice, 10 mg/kg intraperitoneal
  tumor growth vs vehicle control: significantly inhibited tumor growth
RhoA [1]; 10 μM CL16 vs 30 μM Rhosin
  RhoA-GTP level compared with Rhosin: lower RhoA-GTP level
RhoA [1]; HCT116, serum-free 24 h, 10% FBS 10 min
  cellular RhoA-GTP level after serum stimulation vs solvent control: much lower cellular RhoA-GTP levels
RhoA [2]
  GDP-to-GTP self-exchange: significant decreases
  LARG-mediated GDP-to-GTP exchange: significant decreases
RhoA [3]
  FRET/mTFP1 upon serum re-stimulation: abolishment of the increase in FRET/mTFP1
HT29 cells
  cell invasion: good efficacy in reducing HT29 cell migration and invasion
